Legend:
Rattus norvegicus [1] = organism: Rattus norvegicus; assay: pKD value in rat cerebral cortical membranes; type: functional
[2] = target: T1, Gastrin/cholecystokinin type B receptor (Rattus norvegicus, UniProt P30553); assay: Compound was tested for binding affinity against Cholecystokinin type B receptor in rat cortical membranes using L-365260 as the radioligand.; type: cell membranes
T1 sequence (P30553 whole entry): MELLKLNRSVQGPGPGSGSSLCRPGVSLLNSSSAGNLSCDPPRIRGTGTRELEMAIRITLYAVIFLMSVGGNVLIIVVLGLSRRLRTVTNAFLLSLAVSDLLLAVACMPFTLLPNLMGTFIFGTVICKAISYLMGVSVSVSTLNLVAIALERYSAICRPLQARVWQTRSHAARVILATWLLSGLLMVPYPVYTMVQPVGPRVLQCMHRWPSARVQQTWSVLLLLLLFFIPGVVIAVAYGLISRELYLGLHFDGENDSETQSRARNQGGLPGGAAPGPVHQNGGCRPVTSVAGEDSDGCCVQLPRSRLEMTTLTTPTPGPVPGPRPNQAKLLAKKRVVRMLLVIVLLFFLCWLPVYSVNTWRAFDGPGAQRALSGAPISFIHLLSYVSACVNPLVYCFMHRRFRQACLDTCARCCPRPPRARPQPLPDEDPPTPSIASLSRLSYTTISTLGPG

Rattus norvegicus [3] = organism: Rattus norvegicus; assay: Bmax value was determined in rat cerebral cortical membranes

Ki [2]: 23.4 nM
SMILES: O=C(O)c1cc(NC(=O)[C@H](Cc2ccccc2)NC(=O)c2cc3cc[nH]c3cc2C(=O)NCC23CC4CC(CC(C4)C2)C3)cc(C(=O)O)c1
pKD (Rattus norvegicus [1]): 9.48
Bmax (Rattus norvegicus [3]): 3.61 pM/g

Source: ChEMBL document CHEMBL1129719, “The synthesis of a radioligand with high potency and selectivity for CCKB/ gastrin receptors” (Bioorg Med Chem Lett, 1996)
